The values that follow are results of earlier work, collected in patent US6346634B1, “Chemical compound containing a superoxide scavenger and an organic nitrate or nitrite moiety” (Teijin Limited, priority 1999, dated 2002).

Molecules are shown by their SMILES.

Sequence of XO (P47989 whole entry): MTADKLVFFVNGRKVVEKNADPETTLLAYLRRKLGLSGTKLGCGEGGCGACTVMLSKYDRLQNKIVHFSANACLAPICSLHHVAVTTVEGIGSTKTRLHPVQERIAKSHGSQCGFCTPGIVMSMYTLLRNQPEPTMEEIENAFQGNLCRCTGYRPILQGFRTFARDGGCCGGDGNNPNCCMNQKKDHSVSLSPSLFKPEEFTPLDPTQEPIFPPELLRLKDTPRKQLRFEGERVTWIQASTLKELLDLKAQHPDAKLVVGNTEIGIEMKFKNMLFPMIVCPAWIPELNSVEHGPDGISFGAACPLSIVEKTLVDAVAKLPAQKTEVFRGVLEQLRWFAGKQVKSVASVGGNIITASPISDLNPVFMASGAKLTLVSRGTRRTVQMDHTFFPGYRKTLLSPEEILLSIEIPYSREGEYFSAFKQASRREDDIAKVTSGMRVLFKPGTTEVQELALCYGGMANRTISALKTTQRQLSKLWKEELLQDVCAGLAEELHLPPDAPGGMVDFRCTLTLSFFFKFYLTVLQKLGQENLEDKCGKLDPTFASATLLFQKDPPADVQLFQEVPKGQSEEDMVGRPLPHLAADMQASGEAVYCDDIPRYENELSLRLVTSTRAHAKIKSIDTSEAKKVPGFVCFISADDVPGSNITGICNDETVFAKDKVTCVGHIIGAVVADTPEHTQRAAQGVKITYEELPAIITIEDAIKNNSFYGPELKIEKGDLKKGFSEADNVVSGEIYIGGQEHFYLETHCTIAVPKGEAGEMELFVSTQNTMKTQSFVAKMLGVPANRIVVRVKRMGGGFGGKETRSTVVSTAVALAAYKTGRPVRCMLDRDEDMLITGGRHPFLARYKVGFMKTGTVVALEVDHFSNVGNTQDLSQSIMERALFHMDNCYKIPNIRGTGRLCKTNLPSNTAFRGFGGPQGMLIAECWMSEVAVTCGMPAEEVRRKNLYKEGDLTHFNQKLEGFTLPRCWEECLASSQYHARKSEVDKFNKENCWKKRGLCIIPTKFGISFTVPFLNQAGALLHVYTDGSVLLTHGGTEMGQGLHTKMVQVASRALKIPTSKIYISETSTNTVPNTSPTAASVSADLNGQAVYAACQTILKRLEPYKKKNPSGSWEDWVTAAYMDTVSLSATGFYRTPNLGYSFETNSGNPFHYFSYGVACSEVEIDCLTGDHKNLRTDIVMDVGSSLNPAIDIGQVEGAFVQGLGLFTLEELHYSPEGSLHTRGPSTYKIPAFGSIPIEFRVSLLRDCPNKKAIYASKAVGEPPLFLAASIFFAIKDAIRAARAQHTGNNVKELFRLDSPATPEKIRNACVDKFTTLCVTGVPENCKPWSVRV

This series concerns the target XO (Homo sapiens, UniProt P47989). The settings on record: inhibition of superoxide-generating NADH oxidase activity.
Take `COc1cc(-c2cnn3c(=O)nc[n-]c23)ccc1[S+]([O-])c1ccccc1.[Na+]` (centres unmarked) [BOF-4272]: the “NADH-oxidizing activity of XO” value is listed as “not suppressible”.

Turning to `Nc1c(-c2cccc(C(F)(F)F)c2)nsc1C(=O)O` [Amfiutizole], the “NADH-oxidizing activity of XO” value is reported as “not suppressible”.

Consider `O=c1[nH]c(=O)c2c[nH]nc2[nH]1` [oxypurinol], for which the “NADH-oxidizing activity of XO” value is “not suppressible”.

For the compound `c1ccc2c(c1)[I+]c1ccccc1-2` [diphenyleneiodonium], the “NADH-oxidizing activity of XO” value is on record as “blocked”.

Regarding `Oc1ncnc2[nH]ncc12` [allopurinol], the “NADH-oxidizing activity of XO” value was “not suppressible”.
